Columns and labels:
Assay type in all cases: functional
[1] = tested on: Agrobacterium tumefaciens; experiment: Antitumor activity against Agrobacterium tumefaciens B6-induced tumor formation at 10 ug/disk after 12 days by potato disk assay; conditions: B6, 288 h
[2] = tested on: Agrobacterium tumefaciens; experiment: Antitumor activity against Agrobacterium tumefaciens B6-induced tumor formation at 5 ug/disk after 12 days by potato disk assay; conditions: B6, 288 h
[3] = tested on: Agrobacterium tumefaciens; experiment: Antitumor activity against Agrobacterium tumefaciens B6-induced tumor formation at 2.5 ug/disk after 12 days by potato disk assay; conditions: B6, 288 h
[4] = tested on: Agrobacterium tumefaciens; experiment: Antitumor activity against Agrobacterium tumefaciens B6-induced tumor formation at 1.5 ug/disk after 12 days by potato disk assay; conditions: B6, 288 h
P388 = experiment: Antitumor activity against mouse P388 cells xenografted mouse assessed as increase in life span relative to control

**Q.** `COc1cc2cc(c1Cl)N(C)C(=O)C[C@H](OC(=O)[C@H](C)N(C)C(=O)C(C)C)[C@]1(C)O[C@H]1[C@H](C)[C@@H]1C[C@@](O)(NC(=O)O1)[C@H](OC)/C=C/C=C(\C)C2OC` (some centres not stated) [TREWIASINE] was tested. Which inhibition at 10 µg/disc [1] did it give?
**A.** The inhibition at 10 µg/disc was -100%.

**Q.** What about the inhibition at 5 µg/disc [2] of the same molecule?
**A.** The inhibition at 5 µg/disc was -100%.

**Q.** What about the inhibition at 2.5 µg/disc [3] of the same molecule?
**A.** The inhibition at 2.5 µg/disc was -100%.

**Q.** What about the inhibition at 1.5 µg/disc [4] of the same molecule?
**A.** The inhibition at 1.5 µg/disc was -100%.

**Q.** What about the T/C (P388) of the same molecule?
**A.** Its T/C is 168%.

**Q.** Which inhibition at 10 µg/disc [1] does the source give for `COC(=O)C[C@](O)(CCCC(C)(C)O)C(=O)O[C@@H]1C(OC)=C[C@]23CCCN2CCc2cc4c(cc2[C@H]13)OCO4` [OMACETAXINE MEPESUCCINATE] here?
**A.** The inhibition at 10 µg/disc was -79%.

**Q.** And the inhibition at 5 µg/disc [2]?
**A.** Its inhibition at 5 µg/disc is -64%.

**Q.** What about the inhibition at 2.5 µg/disc [3] of the same molecule?
**A.** The inhibition at 2.5 µg/disc was -72%.

**Q.** And the T/C (P388)?
**A.** The T/C was 238%.

**Q.** Which inhibition at 10 µg/disc [1] does the source give for `COc1ccc(C[C@H]2C(=O)N[C@@H](C)C(=O)N(C)[C@@H]3C(=O)N(C)[C@@H](Cc4ccc(O)c(c4)Oc4ccc(cc4)[C@@H]3O)C(=O)N[C@@H](C)C(=O)N[C@@H](C)C(=O)N2C)cc1` [BOUVARDIN] here?
**A.** Its inhibition at 10 µg/disc is -40%.

**Q.** What about the inhibition at 5 µg/disc [2] of the same molecule?
**A.** Its inhibition at 5 µg/disc is -15%.

**Q.** And the inhibition at 2.5 µg/disc [3]?
**A.** Its inhibition at 2.5 µg/disc is 14%.

**Q.** What about the T/C (P388) of the same molecule?
**A.** Its T/C is 188%.

**Q.** What does the source list for `CC[C@]1(O)C[C@H]2CN(CCc3c([nH]c4ccccc34)[C@@](C(=O)OC)(c3cc4c(cc3OC)N(C=O)[C@H]3[C@@](O)(C(=O)OC)[C@H](OC(C)=O)[C@]5(CC)C=CCN6CC[C@]43[C@@H]65)C2)C1` [VINCRISTINE]?
**A.** inhibition at 10 µg/disc [1]: -44%; inhibition at 5 µg/disc [2]: -36%; inhibition at 2.5 µg/disc [3]: -17%; T/C (P388): 242%

— ChEMBL document CHEMBL1151404, “Modification and evaluation of the potato disc assay and antitumor screening of euphorbiaceae seeds” (1982)
